Measured values published in patent publication US6214537A, “Synthetic peptides and mixtures thereof for detecting HIV antibodies” (Biochem Immunosystems, Inc., priority 1988, dated 2001).
Positions of bridges follow the written chain, without caps; N, C: chain ends. Residues, ends and D or L forms follow the SMILES beside them.

Columns and labels:
HIV-1-antibodies = assay: ELISA, cyclic versus non-cyclic peptides, sera at various dilutions; assay type: binding, human
Description: TABLE 5 is provided to illustrate the sensitivity of cyclic versus noncyclic peptides in the ELISA test by comparing the results of some sera at various dilutions.
(§1) Plates used in this experiment were coated with solutions of peptides at 10 μg/ml. (Experimental results of TABLE 5 were obtained with plates coated with peptides at 0,5 μg/ml). Four different HIV-1 positive serum samples were serially diluted and their titers determined. The titer was defined as the serum dilution giving an absorbancy reading of 1:0 in the conditions of the ELISA procedure already described.
(§2) Each well of the microtiter plate is saturated with 100 μl of a solution containing a peptide or mixture of peptides (5 μg/ml) and left overnight. The wells are emptied and washed twice with a washing buffer (Tris, 0.043M; NaCl, 0.5M;thimerosal, 0.01% w/v; Tween 20, 0.05% v/v; pH 7.4). The wells are then saturated with 0.35 ml of washing buffer for 1 hr. at 37° C. and washed once with the same buffer. Serum samples to be analyzed are diluted with specimen buffer (washing buffer plus casein, 0.05% w/v). The wells are rinsed with washing buffer prior to the addition of the diluted serum sample (0.1 ml). These are left to incubate for 1 hr. at room temperature. The wells are then emptied, washed twice rapidly and then once for two minutes with washing buffer. […] The wells are then emptied and washed twice rapidly with washing buffer and then five times in which the buffer was in contact with the well 2 minutes per washing.
(§3) The substrate solution (3,3', 5,5'-tetramethylbenzidine, 8 mg per ml of DMSO) is diluted with 100 volumes 0.1M citrate-acetate buffer, pH 5.6 containing 0.1% v/v of 30% H2 O2 and added to each well (0.1 ml per well). After 10 minutes the contents of each well is treated with 0.1 ml 2N H2 SO4 and the optical density read at 450 nm. All determinations are done in duplicate.

[1] = test system: antibodies specific to HIV-1; assay: ELISA serum titers, plates coated with cyclic 87c versus linear 87; assay type: binding, human
Text: (§4) Even though results presented in TABLE 5 clearly show the superiority of cyclic peptides over their linear counterpart in detecting HIV-1-antibodies, that increased sensitivity could have been underestimated because of probable cyclization and polymerization of the linear peptide after solubilization in a carbonate buffer (pH 9.6). That experiment was repeated with the linear 87 and cyclic 87c peptides dissolved in a carbonate buffer (pH 9.6) as before and also in 10% acetic acid (pH 2.7). […] It is believed that cydization and polymerization also occured in the wells of the microtiter plates although the exact proportion of cyclic peptide bound to the plates versus linear has not been as yet determined.
as §1
The ratios of sensitivities measured with the cyclic peptide over the linear 87 peptide vary between 1:3 and 2:2 with an average of 1:8. These ratios are even larger, varying from 3:0 to 4:5, when the sensitivity of the ELISA test using the cyclic 87c peptide is compared using conditions (acidic pH) where the linear 87 peptide remains linear and is not allowed to cyclize or polymerize.

HIV-1 antibodies [2] = assay: ELISA, single peptides identifying HIV-1 positive sera; assay type: binding, human; conditions: ELISA, single peptide
Description: According to this test a peptide or a peptide mixture of the present invention is adsorbed onto the wells of a microtiter plate. The wells are then treated with sera to be tested. After washing, anti-human IgG labeled with peroxidase is added to the wells. The determination of the peroxidase is performed with a corresponding substrate, e.g. with o-phenylene diamine. Also in this procedure the peroxidase can be exchanged by another label, e.g. by a radioactive or fluorescence label.
as §2, §3

HIV-1 antibodies [3] = assay: ELISA plates coated with cyclic 87c versus linear 87 or polymers of 87: sensitivity and background; assay type: binding, human
[4] = State of peptide in coating solution (HPLC, Ellman's test); assay type: physicochemical; conditions: for state of peptide in solution (HPLC, Ellman's test): 10% acetic acid (pH 2.7)
Text: as §4

[5] = coating buffer 10% Acetic Acid (pH 2.7), serum M-5, coated at 10 μg/ml
[6] = coating buffer 10% Acetic Acid (pH 2.7), serum M-7, coated at 10 μg/ml
[7] = coating buffer 10% Acetic Acid (pH 2.7), serum M-8, coated at 10 μg/ml
[8] = coating buffer 10% Acetic Acid (pH 2.7), serum M-16, coated at 10 μg/ml
[9] = coating buffer Carbonate Bicarbonate 0.1M (pH 9.6), serum M-5, coated at 10 μg/ml
[10] = coating buffer Carbonate Bicarbonate 0.1M (pH 9.6), serum M-7, coated at 10 μg/ml
[11] = coating buffer Carbonate Bicarbonate 0.1M (pH 9.6), serum M-8, coated at 10 μg/ml
[12] = coating buffer Carbonate Bicarbonate 0.1M (pH 9.6), serum M-16, coated at 10 μg/ml

`CC[C@H](C)[C@H](NC(=O)CNC(=O)[C@H](CC(C)C)NC(=O)[C@H](CC(C)C)NC(=O)[C@H](CCC(N)=O)NC(=O)[C@H](CCC(N)=O)NC(=O)[C@H](CC(=O)O)NC(=O)[C@H](CCCCN)NC(=O)[C@H](CC(C)C)NC(=O)[C@H](Cc1ccc(O)cc1)NC(=O)[C@H](CCCNC(=N)N)NC(=O)[C@H](CCC(=O)O)NC(=O)[C@@H](NC(=O)[C@H](C)NC(=O)[C@H](CC(C)C)NC(=O)[C@@H](NC(=O)[C@@H](N)CCCNC(=N)N)[C@@H](C)CC)C(C)C)C(=O)N[C@@H](Cc1c[nH]c2ccccc12)C(=O)NCC(=O)N[C@H]1CSSC[C@@H](C(=O)N[C@H](C(=O)N[C@H](C(=O)N[C@@H](C)C(=O)N[C@H](C(=O)N2CCC[C@H]2C(=O)N[C@@H](Cc2c[nH]c3ccccc23)C(=O)N[C@@H](CC(N)=O)C(=O)N[C@@H](C)C(=O)N[C@@H](CO)C(=O)O)C(C)C)[C@@H](C)O)[C@@H](C)O)NC(=O)[C@H]([C@@H](C)CC)NC(=O)[C@H](CC(C)C)NC(=O)[C@H](CCCCN)NC(=O)CNC(=O)[C@H](CO)NC1=O` [Peptide 87c] (H-RILAVERYLKDQQLLGIWGCSGKLICTTAVPWNAS-OH; disulfide 20-26) gave an ELISA optical density (HIV-1-antibodies; serum 87V103, dilution 1/50) of 0.011 optical density units, an ELISA optical density (HIV-1-antibodies; serum 1428, dilution 1/50) greater than 2.0 optical density units and an ELISA optical density (HIV-1-antibodies; serum M-5, dilution 1/50) greater than 2.0 optical density units. It also gave an ELISA optical density (HIV-1-antibodies; serum M-5, dilution 1/100) greater than 2.0 optical density units, an ELISA optical density (HIV-1-antibodies; serum M-5, dilution 1/200) greater than 2.0 optical density units and an ELISA optical density (HIV-1-antibodies; serum M-5, dilution 1/400) greater than 2.0 optical density units. For the same compound, the ELISA optical density (HIV-1-antibodies; serum M-5, dilution 1/800) was 1.854 optical density units, the ELISA optical density (HIV-1-antibodies; serum M-7, dilution 1/50) was greater than 2.0 optical density units and the ELISA optical density (HIV-1-antibodies; serum M-7, dilution 1/100) was greater than 2.0 optical density units. For the same compound, the ELISA optical density (HIV-1-antibodies; serum M-7, dilution 1/200) was 1.729 optical density units, the ELISA optical density (HIV-1-antibodies; serum M-7, dilution 1/400) was 1.348 optical density units and the ELISA optical density (HIV-1-antibodies; serum M-7, dilution 1/800) was 0.611 optical density units. It also gave an ELISA optical density (HIV-1-antibodies; serum M-8, dilution 1/50) greater than 2.0 optical density units, an ELISA optical density (HIV-1-antibodies; serum M-8, dilution 1/100) greater than 2.0 optical density units and an ELISA optical density (HIV-1-antibodies; serum M-8, dilution 1/200) of 1.655 optical density units. The ELISA optical density (HIV-1-antibodies; serum M-8, dilution 1/400) was 1.064 optical density units, the ELISA optical density (HIV-1-antibodies; serum M-8, dilution 1/800) was 0.384 optical density units and the ELISA optical density (HIV-1-antibodies; serum M-16, dilution 1/50) was greater than 2.0 optical density units. For the same compound, the ELISA optical density (HIV-1-antibodies; serum M-16, dilution 1/100) was greater than 2.0 optical density units, the ELISA optical density (HIV-1-antibodies; serum M-16, dilution 1/200) was greater than 2.0 optical density units and the ELISA optical density (HIV-1-antibodies; serum M-16, dilution 1/400) was greater than 2.0 optical density units. The ELISA optical density (HIV-1-antibodies; serum M-16, dilution 1/800) was 1.962 optical density units, the “titer ratio A/B (87c cyclic / 87 linear)” value ([1]; 10% Acetic Acid (pH 2.7), serum M-5) was 3.0 and the “titer ratio A/B (87c cyclic / 87 linear)” value ([1]; 10% Acetic Acid (pH 2.7), serum M-7) was 3.9. The “titer ratio A/B (87c cyclic / 87 linear)” value ([1]; 10% Acetic Acid (pH 2.7), serum M-8) was 4.5, the “titer ratio A/B (87c cyclic / 87 linear)” value ([1]; 10% Acetic Acid (pH 2.7), serum M-16) was 3.7 and the “titer ratio A/B (87c cyclic / 87 linear)” value ([1]; Carbonate Bicarbonate 0.1M (pH 9.6), serum M-5) was 1.3. For the same compound, the “titer ratio A/B (87c cyclic / 87 linear)” value ([1]; Carbonate Bicarbonate 0.1M (pH 9.6), serum M-7) was 1.8, the “titer ratio A/B (87c cyclic / 87 linear)” value ([1]; Carbonate Bicarbonate 0.1M (pH 9.6), serum M-8) was 2.2 and the “titer ratio A/B (87c cyclic / 87 linear)” value ([1]; Carbonate Bicarbonate 0.1M (pH 9.6), serum M-16) was 1.7. The serum titer [1, 5] was 13500, the serum titer [1, 6] was 9000 and the serum titer [1, 7] was 6300. The serum titer [1, 8] was 56000, the serum titer [1, 9] was 13500 and the serum titer [1, 10] was 11000. The serum titer [1, 11] was 6500, the serum titer [1, 12] was 56000 and the “% Positive Sera correctly Identified” value (HIV-1 antibodies [2]) was 99%. For the same compound, the “sensitivity in detecting HIV-1 antibodies compared with plates coated with pool of fractions containing only polymers of peptide 87” value (HIV-1 antibodies [3]) was “superiority” and the “state of peptide in solution (HPLC, Ellman's test)” value [4] was “remained cyclic”.
“NH2 -RILAVERYLKDQQLLGIWGCSGKLICTTAVPWNAS-COOH [Peptide 87]” showed an ELISA optical density (HIV-1-antibodies; serum 87V103, dilution 1/50) of 0.005 optical density units, an ELISA optical density (HIV-1-antibodies; serum 1428, dilution 1/50) of 1.463 optical density units and an ELISA optical density (HIV-1-antibodies; serum M-5, dilution 1/50) of 1.809 optical density units. For the same compound, the ELISA optical density (HIV-1-antibodies; serum M-5, dilution 1/100) was 1.685 optical density units, the ELISA optical density (HIV-1-antibodies; serum M-5, dilution 1/200) was 1.513 optical density units and the ELISA optical density (HIV-1-antibodies; serum M-5, dilution 1/400) was 1.418 optical density units. For the same compound, the ELISA optical density (HIV-1-antibodies; serum M-5, dilution 1/800) was 1.012 optical density units, the ELISA optical density (HIV-1-antibodies; serum M-7, dilution 1/50) was 1.504 optical density units and the ELISA optical density (HIV-1-antibodies; serum M-7, dilution 1/100) was 1.329 optical density units. For the same compound, the ELISA optical density (HIV-1-antibodies; serum M-7, dilution 1/200) was 1.184 optical density units, the ELISA optical density (HIV-1-antibodies; serum M-7, dilution 1/400) was 0.923 optical density units and the ELISA optical density (HIV-1-antibodies; serum M-7, dilution 1/800) was 0.571 optical density units. For the same compound, the ELISA optical density (HIV-1-antibodies; serum M-8, dilution 1/50) was 1.390 optical density units, the ELISA optical density (HIV-1-antibodies; serum M-8, dilution 1/100) was 1.087 optical density units and the ELISA optical density (HIV-1-antibodies; serum M-8, dilution 1/200) was 0.883 optical density units. It also gave an ELISA optical density (HIV-1-antibodies; serum M-8, dilution 1/400) of 0.593 optical density units, an ELISA optical density (HIV-1-antibodies; serum M-8, dilution 1/800) of 0.240 optical density units and an ELISA optical density (HIV-1-antibodies; serum M-16, dilution 1/50) of 1.846 optical density units. The ELISA optical density (HIV-1-antibodies; serum M-16, dilution 1/100) was 1.784 optical density units, the ELISA optical density (HIV-1-antibodies; serum M-16, dilution 1/200) was 1.740 optical density units and the ELISA optical density (HIV-1-antibodies; serum M-16, dilution 1/400) was 1.634 optical density units. It also gave an ELISA optical density (HIV-1-antibodies; serum M-16, dilution 1/800) of 1.537 optical density units, a serum titer [1, 5] of 4500 and a serum titer [1, 6] of 2300. It also gave a serum titer [1, 7] of 1400, a serum titer [1, 8] of 15000 and a serum titer [1, 9] of 10500. It also gave a serum titer [1, 10] of 6000, a serum titer [1, 11] of 2900 and a serum titer [1, 12] of 33000. The “% Positive Sera correctly Identified” value (HIV-1 antibodies [2]) was 99%, the “state of peptide in solution (HPLC, Ellman's test)” value [4] was “remained linear” and the “state of peptide in solution (HPLC)” value ([4]; carbonate buffer (pH 9.6), room temperature) was “underwent cyclization and polymerization”.
